The numbers were not newly measured in patent publication US20130345296A1, “Compositions Comprising a Taxane for Coating Medical Devices” (AVIDAL VASCULAR GMBH, priority 2010, published 2013), which cites them from elsewhere.

The structures appear in SMILES notation.

Series [1] deals with microtubules. The note with it: in vitro studies; Rowinsky et al. (1990).
In series [2] the test system is leukemia, colon, breast, melanoma, sarcomas, and Lewis lung tumor systems. The note with it: Tarr et al. (1987); Horwitz (1992).

As for `CC(=O)O[C@H]1C(=O)[C@@]2(C)[C@H]([C@H](OC(=O)c3ccccc3)[C@]3(O)C[C@H](OC(=O)[C@H](O)[C@@H](NC(=O)c4ccccc4)c4ccccc4)C(C)=C1C3(C)C)[C@]1(OC(C)=O)CO[C@@H]1C[C@@H]2O` [taxol, paclitaxel], the “concentrations of taxol that stabilize microtubules” value in series [1] is 0.1 to 10.0 µg/mL. Moreover, the “activity against tumor systems” value in series [2] is listed as “active”.
